This is an account of results in ChEMBL document CHEMBL1137993, “Novel histone deacetylase inhibitors: cyclic tetrapeptide with trifluoromethyl and pentafluoroethyl ketones” (Bioorg Med Chem Lett, 2004).

The assay has as its system Nucleic Acid.

In general, EC50 refers to the concentration at which the effect is half-maximal.

As to `CC(/C=C/C(=O)NO)=C\[C@@H](C)C(=O)c1ccc(N(C)C)cc1` [TRICHOSTATIN], a half-maximal response (EC50) required 0.77 µM.

Compound `CC[C@H](C)[C@@H]1NC(=O)[C@@H](Cc2ccc(OC)cc2)NC(=O)[C@H](CCCCCC(=O)C(F)(F)C(F)(F)F)NC(=O)[C@H]2CCCN2C1=O` returned an EC50 of 31.1 µM.

The compound `CC[C@H](C)[C@@H]1NC(=O)[C@@H](Cc2ccc(OC)cc2)NC(=O)[C@H](CCCCCC(=O)C(F)(F)F)NC(=O)[C@H]2CCCN2C1=O` showed an EC50 of 3.09 µM.
